Results: ChEMBL document CHEMBL1138246, “Ester prodrugs of cyclic 1-(S)-[3-hydroxy-2-(phosphonomethoxy)propyl]-5-azacytosine: synthesis and antiviral activity” (J Med Chem, 2007)
Values after ≈ are worked out from the molar mass of the structure shown.

These compounds were tested on Vaccinia virus. Details: Orthopoxvirus vaccinia, Lederle, HEL.
Assay type: functional, organism-based

Point of comparison: `CC(C)(C)C(=O)OCOP1(=O)CO[C@@H](Cn2cnc(N)nc2=O)CO1` (some centres not stated), EC50 0.79 µg/mL (≈ 2.1 µM). Against it:
- Nc1ncn(C[C@@H](CO)OCP(=O)(O)O)c(=O)n1 — 2.7-fold higher, 2.16 µg/mL (≈ 7.71 µM)
- Nc1ncn(C[C@H]2COP(=O)(O)CO2)c(=O)n1 — 2.7-fold higher, 2.12 µg/mL (≈ 8.09 µM)
- CCCCCCCCCCCCCCCCOCCOP1(=O)CO[C@@H](Cn2cnc(N)nc2=O)CO1 (some centres not stated) — 21-fold lower, 0.037 µg/mL (≈ 0.0697 µM)
- CCCCCCCCCCCCCCCCCCOP1(=O)CO[C@@H](Cn2cnc(N)nc2=O)CO1 (some centres not stated) — 5.6-fold higher, 4.45 µg/mL (≈ 8.65 µM)
- Nc1ccn(C[C@@H](CO)OCP(=O)(O)O)c(=O)n1.O.O [CIDOFOVIR] — 3.9-fold higher, 3.09 µg/mL
- Nc1ccn(C[C@H]2COP(=O)(O)CO2)c(=O)n1 [CYCLIC CIDOFOVIR] — 3.5-fold higher, 2.78 µg/mL (≈ 10.6 µM)
